# Entries after “also recorded” stand apart in the source; their conditions may differ. Like-named read-outs stand apart in the source and are kept apart here.
# How the values were obtained:
# [1] = system: BRAF^V600-mutated metastatic melanoma; assay: Survival (PFS, OS) and Cox exposure-survival analysis under CombiDT; format: in vivo, human (patients); conditions: for Risk of Death, HR (CI95%) for AUCM3 / Risk of Progression, HR (CI95%) for AUCM3: n = 30
# Method: (§6) Pharmacokinetic/pharmacodynamic analysis was conducted in BRAF^V600-mutated MM patients concomitantly treated with CombiDT. Regarding safety, the onset of DLT was considered as the clinical endpoint. A DLT was defined as any toxicity leading to dose reduction or temporary or permanent discontinuation of treatment. Regarding survival, the primary end point was progression free survival (PFS), the time from DAB and TRA treatment initiation to documented progression event (either clinical or radiological progression) or death from any cause. The secondary end-point was overall survival (OS), defined as the time from DAB and TRA treatment initiation to death from any cause. Radiographic evidence of progression was defined according to modified Response Evaluation Criteria in Solid Tumor (RECIST) v1.1 [41].
# Multivariate Cox models according to a stepwise procedure were tested including all variables which were significant at 5% level in the univariate analyses.
# [2] = human, in vivo
# Method: as §6
# (§7) Systemic exposures to DAB, OHD, and TRA (AUCDAB, AUCOHD, and AUCTRA, respectively) were calculated with classic equations, composite DAB and OHD AUC (AUCDAB+OHD) as previously explained and AUCOHD/DAB as the ratio of AUCOHD over AUCDAB. Univariate Fisher and Wilcoxon models were performed to identify which parameters could contribute to the onset of DLT. The following variables were tested: sex, age at treatment initiation, BMI, Eastern Cooperative Oncology Group Performance Status (ECOG PS: grade 0-1 vs ≥2), lactate dehydrogenase (LDH) level (<1.5N vs. ≥1.5N), AUCDAB, AUDOHD, AUCDAB+OHD, and AUCTRA.
# (§8) Multivariate Cox models according to a stepwise procedure were tested including all variables which were significant at 5% level in the univariate analyses. All the pharmacokinetic/pharmacodynamic analyses were performed using R program v3.6.1 with RStudio v1.1.383 (http://www.r-project.org).
# [3] = set-up: method as in earlier work; conditions: preclinical data; cited from earlier work
# [4] = Population pharmacokinetic model of dabrafenib/hydroxy-dabrafenib (NONMEM) from plasma concentrations; format: in vivo, human (patients)
# Text: (§1) Seventy-three outpatients treated with DAB were enrolled from July 2015 to June 2017 in this observational multicentric study including three hospitals of the Assistance Publique—Hôpitaux de Paris (Cochin, Henri Mondor, and Avicenne). To be eligible, patients needed to meet the following criteria: a minimal age of 18 years, metastatic BRAF^V600-mutated solid tumors, treatment with DAB or CombiDT with at least one available DAB concentration measurement.
# (§2) DAB, dabrafenib-d9 (internal standard, IS), and TRA were purchased from LGC Standards (Molsheim, France). A custom synthesis was developed by Shanghai Medicilon (Shanghai, China) for OHD. The plasma concentrations were assayed using a validated high-performance liquid chromatography-tandem mass spectrometry (HPLC-MS/MS) (ATSQ Quantum Ultra®mass spectrometer, ThermoFisher, Les Ulis, France). Chromatographic separation was performed on Accucore® C18 (2.1 × 50 mm; 2.6 µm) analytical column (ThermoFisher Scientific, Les Ulis, France) associated with a guard column packed with the same bonded phase. Two hundred microliters (µL) aliquot of plasma (calibration standard, internal quality control or patient sample) was mixed with 20 µL of IS solution. Then 600 µL acetonitrile with 1% (v/v) formic acid was added. Samples were mixed and centrifuged, and the supernatant was evaporated and recovered with 200 µL of mobile phase: water/methanol (70:30%, v/v) with formic acid (0.1% v/v). Ten microliters of this mixture were injected into the HPLC-MS/MS system. The calibration standards ranged from 10 to 2000 ng/mL for DAB and OHD and from 5 to 50 ng/mL for TRA.
# (§3) Blood samples were collected in heparinized tubes during the treatment course, and the exact sample time was recorded. Plasma was separated by centrifugation (3000 rpm, 5 min), and stored at −20 °C until analysis.
# (§4) The non-linear mixed effects modeling program NONMEM v7.4.1 [34] with the Perl-Speaks NONMEM (PsN) Toolkit v4.8.0 [35] was used to build DAB/OHD and TRA models. Pirana v2.9.2 was used to assist in model development. […] Molar units were used for DAB/OHD analyses. Plasma samples with concentrations below the lower limit of quantification of the assay, non-reliable time information about blood sampling, or without dose information were excluded from the analysis.
# (§5) A stepwise strategy was used to identify the base models that best fitted DAB/OHD and TRA pharmacokinetic data. Different structural models such as one or two compartments, with linear absorption with or without lag time, were compared. DAB and OHD were modeled simultaneously testing multi-compartment models for both compounds. We hypothesized that DAB was cleared by complete oxidation to OHD, since it is not eliminated as unchanged molecule in urine and accounts for less than 22% in feces. Moreover, the first-order absorption rate constant (ka) of DAB was fixed to 1.8 h^−1 according to a previously published value to allow an adequate estimate of all pharmacokinetic parameters. Since DAB and TRA are administered orally, the pharmacokinetic parameters represent apparent values. Exponential errors following a log-normal distribution were assumed for the description of IIV of all the pharmacokinetic parameters. Inter-occasion variability (IOV) was tested in both DAB/OHD and TRA models to assess differences in individual parameters across study occasions. Additive, proportional, and mixed error models were compared to depict the residual unexplained variability (RUV) for both drugs and metabolite. The correlation between DAB and OHD data was tested using the L2 item in NONMEM. […]
# [5] = Model-estimated systemic exposure (AUC) in BRAF^V600-mutated MM patients treated with CombiDT; conditions: for AUC: human, plasma, oral
# Method: as §6, §7, §8
# [6] = cited from earlier work
# mutant BRAF = system: mutant BRAF; set-up: method as in PMID 24958809; conditions: in vitro study; cited from earlier work
# [7] = system: BRAF^V600-mutated MM patients; assay: Safety: adverse events and dose-limiting toxicities (DLT) under CombiDT; conditions: human, in vivo
# Method: Patients initiated DAB at the recommended daily dose of 150 mg twice daily. In patients treated with CombiDT, TRA was started at 2 mg once daily. Reduced starting doses were allowed at physician discretion based on comorbidities and patients’ general condition. All AE were graded using the National Cancer Institute Common Toxicity Criteria v4.0. DAB treatment was continued until disease progression, unacceptable toxicity, or unfitness to receive it.
# [8] = Population pharmacokinetic model of trametinib (NONMEM) from plasma concentrations; format: in vivo, human (patients); conditions: for Vd/F: human, plasma, oral, read-out: V2/F, apparent central volume of distribution of TRA
# Text: as §1, §2, §3, §4, §5
# [9] = multivariate Cox model with ECOG PS ≥2
# [10] = bootstrap median (n = 500 samples)
smiles,measurement,setting,value
"CC(C)(CO)c1nc(-c2cccc(NS(=O)(=O)c3c(F)cccc3F)c2F)c(-c2ccnc(N)n2)s1 [OHD, hydroxy-dabrafenib]","Risk of Death, HR (CI95%) for AUCM3,OHD",[1]; [9],1.61 (1.07–2.45)
same,"Risk of Death, HR (CI95%) for AUCM3,OHD/DAB ratio ≥ 1",[1]; [9],10.61 (2.34–48.15)
same,"Risk of Progression, HR (CI95%) for AUCM3,OHD",[1]; multivariate Cox model with cerebral metastases,1.29 (0.99–1.68)
same,"Risk of Progression, HR (CI95%) for AUCM3,OHD",[1]; multivariate Cox model with number of metastasis site ≥3,1.27 (0.97–1.68)
same,"Risk of Death, HR (CI95%) for AUCM3,OHD/AUCM3,DAB ratio ≥ 1 vs. < 1",[1]; univariate Cox model,4.11 (1.18–14.29)
same,"Risk of Progression, HR (CI95%) for AUCM3,OHD/AUCM3,DAB ratio ≥ 1 vs. < 1",[1]; univariate Cox model,1.66 (0.62–4.46)
same,"Risk of Death, HR (CI95%) for AUCM3",[1]; univariate Cox model,1.64 (1.09–2.48)
same,"Risk of Progression, HR (CI95%) for AUCM3",[1]; univariate Cox model,1.37 (1.02–1.83)
same,median AUCOHD/AUCDAB ratio,[2],0.80 (0.50–1.32)
same,passage of the intact blood brain barrier,[3],lack of OHD diffusion into the brain
same,difference in pharmacokinetics,"[4]; DAB monotherapy vs. combiDT (ΔOFV = −2.9, p > 0.05)",did not differ
same,"CLm/F, apparent clearance of OHD",[4]; base DAB/OHD model,22.8 L/h
same,"IIV CLm/F, interindividual variability (coefficient of variation)",[4]; base DAB/OHD model,26.8%
same,"IIV V3/F, interindividual variability (coefficient of variation)",[4]; base DAB/OHD model,84.0%
same,"RUV of OHD, residual unexplained variability (proportional)",[4]; base DAB/OHD model,53.1%
same,"CLm/F, apparent clearance of OHD",[4]; [10],22.9 L/h
same,"IIV CLm/F, interindividual variability (coefficient of variation)",[4]; [10],21.8%
same,"IIV V3/F, interindividual variability (coefficient of variation)",[4]; [10],82.0%
same,"RUV of OHD, residual unexplained variability (proportional)",[4]; [10],52.7%
same,"θage/(CLm/F), Age effect on CLm/F",[4]; [10],−0.543
same,difference in pharmacokinetics,"[4]; concomitant proton-pump inhibitor (PPI) intake (ΔOFV = −3.5, p > 0.05)",did not differ
same,"CLm/F, apparent clearance of OHD",[4]; final DAB/OHD model,23.2 L/h
same,"IIV CLm/F, interindividual variability (coefficient of variation)",[4]; final DAB/OHD model,24.0%
same,"IIV V3/F, interindividual variability (coefficient of variation)",[4]; final DAB/OHD model,47.5%
same,"RUV of OHD, residual unexplained variability (proportional)",[4]; final DAB/OHD model,53.1%
same,"θage/(CLm/F), Age effect on CLm/F","[4]; final DAB/OHD model, median age 61.2 years",−0.589
same,"base model variance of clearance explained by covariates (sex, age)",[4]; in vivo,20%
same,decrease in CLm/F,[4]; same age variation (20 to 90 years),51%
same,median AUCM3 (mean AUC during the first three months of treatment),[5]; 30 MM patients of the exposure-survival analysis,6082 ng·h/mL
same,"AUCM3,OHD/AUCM3,DAB ratio",[5]; patients experiencing cerebral progression,0.9 (0.5–1.3)
same,"AUC, median (range)","[5]; patients with DAB-related DLT (n = 12), last AUC before onset of DLT",7509.5 (4918–10300) ng∙h/mL
same,"AUCM3,OHD/AUCM3,DAB ratio",[5]; patients with extra-cerebral progression,0.8 (0.6–0.8)
same,"AUC, median (range)","[5]; patients without DAB-related DLT (n = 40), average AUC over treatment course",5812 (2459–10300) ng∙h/mL
same,mean OHD-to-DAB exposure ratio in plasma,[6],0.8
same,potency as an inhibitor of mutant BRAF compared to DAB,mutant BRAF,two-fold higher pharmacological potency; also recorded: twofold higher potency
"CC(=O)Nc1cccc(-n2c(=O)n(C3CC3)c(=O)c3c(Nc4ccc(I)cc4F)n(C)c(=O)c(C)c32)c1 [TRA, trametinib]","Risk of Death, HR (CI95%) for AUCM3",[1]; univariate Cox model,1.37 (0.94–1.98)
same,"Risk of Progression, HR (CI95%) for AUCM3",[1]; univariate Cox model,1.31 (0.93–1.83)
same,median time to onset of drug-related DLT,[7],104 days
same,patients in whom the drug dose was reduced,[7],23%
same,patients in whom the drug was discontinued permanently,[7],10%
same,patients who experienced a drug-related DLT,[7],33%
same,AUC,"[5]; AUCTRA, median (range), patients with TRA-related DLT (n = 17), last AUC before onset of DLT",268 ng·h/mL
same,AUC,"[5]; AUCTRA, median (range), patients without TRA-related DLT (n = 35), average AUC over treatment course",268 ng·h/mL
same,AUC,"[5]; median AUCM3 (mean AUC during the first three months of treatment), 30 MM patients of the exposure-survival analysis",292 ng·h/mL
same,"CL/F, apparent clearance of TRA",[8]; [10],5.82 L/h
same,"IIV CL/F, interindividual variability (coefficient of variation)",[8]; [10],28.6%
same,"IIV Q, interindividual variability (coefficient of variation)",[8]; [10],80.1%
same,"RUV, residual unexplained variability (additive error)",[8]; [10],4.10 ng/mL
same,"Tlag, lag time",[8]; [10],0.728 h
same,"ka, first order absorption rate constant",[8]; [10],1.04 h⁻¹
same,"IIV CL/F, interindividual variability (coefficient of variation)",[8]; final TRA model,29.6%
same,"IIV Q, interindividual variability (coefficient of variation)",[8]; final TRA model,80.2%
same,"RUV, residual unexplained variability (additive error)",[8]; final TRA model,4.14 ng/mL
same,"Tlag, lag time",[8]; final TRA model,0.709 h
same,"ka, first order absorption rate constant",[8]; final TRA model,0.913 h⁻¹
same,"CL/F, apparent clearance of TRA","[8]; final TRA model, n = 60",5.83 L/h
same,Vd/F,[8]; [10],65.1 L
same,Vd/F,[8]; final TRA model,61.9 L
CC(C)c1nc(-c2cccc(NS(=O)(=O)c3c(F)cccc3F)c2F)c(-c2ccnc(N)n2)s1 [desmethyl-dabrafenib],passage of the intact blood brain barrier,[3],may cross intact blood brain barrier

# Source: PMC7226106, “Population Pharmacokinetics/Pharmacodynamics of Dabrafenib Plus Trametinib in Patients with BRAF-Mutated Metastatic Melanoma” (Cancers, 2020)
